Columns and labels:
[1] = system: Glomerella lagenarium (Colletotrichum lagenarium); assay: Fungicidal activity against Glomerella lagenarium (Colletotrichum lagenarium), liquid culture / cucumber / preventative (anthracnose); type: cell-based; conditions: Colletotrichum orbiculare, liquid culture (PDB), growth inhibition measured photometrically 3-4 days after application, compared to untreated control
Method: Mycelia fragments or conidia suspensions of a fungus, prepared either freshly from liquid cultures of the fungus or from cryogenic storage, are directly mixed into nutrient broth. DMSO solutions of the test compound (max. 10 mg/ml) is diluted with 0.025% Tween20 by a factor of 50 and 10 μl of this solution is pipetted into a microtiter plate (96-well format). The nutrient broth containing the fungal spores/mycelia fragments is then added to give an end concentration of the tested compound. The test plates are incubated in the dark at 24° C. and 96% relative humidity. The inhibition of fungal growth is determined photometrically after 2 to 7 days, depending on the pathosystem, and percent antifungal activity relative to the untreated check is calculated. Conidia of the fungus from cryogenic storage are directly mixed into nutrient broth (PDB potato dextrose broth). After placing a (DMSO) solution of test compound into a microtiter plate (96-well format), the nutrient broth containing the fungal spores is added. The test plates are incubated at 24° C. and the inhibition of growth is measured photometrically 3-4 days after application.

[2] = system: Puccinia recondita f. sp. tritici; assay: Fungicidal activity against Puccinia recondita f. sp. tritici / wheat / leaf disc curative (brown rust); type: in vivo; conditions: foliar, 144 h, wheat leaf segments cv. Kanzler, applied 1 day after inoculation, assessed 6-8 days after application, compared to untreated control
Method: Leaf disks or leaf segments of various plant species are cut from plants grown in a greenhouse. The cut leaf disks or segments are placed in multiwell plates (24-well format) onto water agar. The leaf disks are sprayed with a test solution before (preventative) or after (curative) inoculation. Compounds to be tested are prepared as DMSO solutions (max. 10 mg/ml) which are diluted to the appropriate concentration with 0.025% Tween20 just before spraying. The inoculated leaf disks or segments are incubated under defined conditions (temperature, relative humidity, light, etc.) according to the respective test system. A single evaluation of disease level is carried out 3 to 14 days after inoculation, depending on the pathosystem. Percent disease control relative to the untreated check leaf disks or segments is then calculated. Wheat leaf segments cv. Kanzler are placed on agar in multiwell plates (24-well format). The leaf segments are inoculated with a spore suspension of the fungus. Plates are stored in darkness at 19° C. and 75% rh. The formulated test compound diluted in water is applied 1 day after inoculation. The leaf segments are incubated at 19° C. and 75% rh under a light regime of 12 h light/12 h darkness in a climate cabinet and the activity of a compound is assessed as percent disease control compared to untreated when an appropriate level of disease damage appears in untreated check leaf segments (6-8 days after application).

[3] = system: Puccinia recondita f. sp. tritici; assay: Fungicidal activity against Puccinia recondita f. sp. tritici / wheat / leaf disc preventative (brown rust); type: in vivo; conditions: foliar, 168 h, wheat leaf segments cv. Kanzler, inoculated 1 day after application, assessed 7-9 days after application, compared to untreated control
Method: Leaf disks or leaf segments of various plant species are cut from plants grown in a greenhouse. The cut leaf disks or segments are placed in multiwell plates (24-well format) onto water agar. The leaf disks are sprayed with a test solution before (preventative) or after (curative) inoculation. Compounds to be tested are prepared as DMSO solutions (max. 10 mg/ml) which are diluted to the appropriate concentration with 0.025% Tween20 just before spraying. The inoculated leaf disks or segments are incubated under defined conditions (temperature, relative humidity, light, etc.) according to the respective test system. A single evaluation of disease level is carried out 3 to 14 days after inoculation, depending on the pathosystem. Percent disease control relative to the untreated check leaf disks or segments is then calculated. Wheat leaf segments cv. Kanzler are placed on agar in multiwell plates (24-well format) and sprayed with the formulated test compound diluted in water. The leaf disks are inoculated with a spore suspension of the fungus 1 day after application. The inoculated leaf segments are incubated at 19° C. and 75% rh under a light regime of 12 h light/12 h darkness in a climate cabinet and the activity of a compound is assessed as percent disease control compared to untreated when an appropriate level of disease damage appears in untreated check leaf segments (7-9 days after application).

melting point | SMILES | inhibition of growth at 20 ppm [1] | pest or weed control at 200 ppm [2] | pest or weed control at 200 ppm [3]
– | COC(=O)N1CCCC1c1ccc(-c2noc(C(F)(F)F)n2)cc1 (stereo not shown) [Compound A-32, methyl 2-[4-[5-(trifluoromethyl)-1,2,4-oxadiazol-3-yl]phenyl]pyrrolidine-1-carboxylate] | ≥ 80% | ≥ 80% | –
– | Cc1cc(-c2ccc(-c3noc(C(F)(F)F)n3)cc2)on1 [Compound C-11, 3-[4-(3-methylisoxazol-5-yl)phenyl]-5-(trifluoromethyl)-1,2,4-oxadiazole] | – | ≥ 80% | ≥ 80%
70 to 75 °C | CC1(C)COC(c2ccc(-c3noc(C(F)(F)F)n3)cc2)=N1 [Compound A-2, 3-[4-(4,4-dimethyl-5H-oxazol-2-yl)phenyl]-5-(trifluoromethyl)-1,2,4-oxadiazole] | ≥ 80% | ≥ 80% | ≥ 80%
105 to 110 °C | Fc1cc(-c2ccc(-c3noc(C(F)(F)F)n3)cc2)ccn1 [Compound D-7, 3-[4-(2-fluoro-4-pyridyl)phenyl]-5-(trifluoromethyl)-1,2,4-oxadiazole] | ≥ 80% | ≥ 80% | ≥ 80%
– | CCC(=O)N1CCCC1c1ccc(-c2noc(C(F)(F)F)n2)cc1 (stereo not shown) [Compound A-37, 1-[2-[4-[5-(trifluoromethyl)-1,2,4-oxadiazol-3-yl]phenyl]pyrrolidin-1-yl]propan-1-one] | ≥ 80% | ≥ 80% | –
94 to 97 °C | FC(F)(F)c1nc(-c2ccc(-c3ncco3)cc2)no1 [Compound C-3, 3-(4-oxazol-2-ylphenyl)-5-(trifluoromethyl)-1,2,4-oxadiazole] | – | ≥ 80% | ≥ 80%
75 to 80 °C | Fc1ccc(-c2ccc(-c3noc(C(F)(F)F)n3)cc2)cn1 [Compound D-6, 3-[4-(6-fluoro-3-pyridyl)phenyl]-5-(trifluoromethyl)-1,2,4-oxadiazole] | ≥ 80% | ≥ 80% | ≥ 80%
– | O=C(NC1CSC(c2ccc(-c3noc(C(F)(F)F)n3)c(F)c2)=N1)C1CC1 (stereo not shown) [Compound A-22, N-[2-[3-fluoro-4-[5-(trifluoromethyl)-1,2,4-oxadiazol-3-yl]phenyl]-4,5-dihydrothiazol-4-yl]cyclopropanecarboxamide] | ≥ 80% | ≥ 80% | –
– | CC(C)(C)[S+]([O-])NC1CSC(c2ccc(-c3noc(C(F)(F)F)n3)c(F)c2)=N1 (stereo not shown) [Compound A-26, N-[2-[3-fluoro-4-[5-(trifluoromethyl)-1,2,4-oxadiazol-3-yl]phenyl]-4,5-dihydro-thiazol-4-yl]-2-methyl-propane-2-sulfinamide] | ≥ 80% | ≥ 80% | ≥ 80%
141 to 175 °C | COCC(=O)NC1CSC(c2ccc(-c3noc(C(F)(F)F)n3)c(F)c2)=N1 (stereo not shown) [Compound A-25, N-[2-[3-fluoro-4-[5-(trifluoromethyl)-1,2,4-oxadiazol-3-yl]phenyl]-4,5-dihydrothiazol-4-yl]-2-methoxy-acetamide] | ≥ 80% | – | ≥ 80%
– | COCC(=O)N1CCCC1c1ccc(-c2noc(C(F)(F)F)n2)cc1 (stereo not shown) [Compound A-33, 2-methoxy-1-[2-[4-[5-(trifluoromethyl)-1,2,4-oxadiazol-3-yl]phenyl]pyrrolidin-1-yl]ethanone] | ≥ 80% | ≥ 80% | ≥ 80%
– | CC(=O)N1CCCC1c1ccc(-c2noc(C(F)(F)F)n2)cc1 (stereo not shown) [Compound A-38, 1-[2-[4-[5-(trifluoromethyl)-1,2,4-oxadiazol-3-yl]phenyl]pyrrolidin-1-yl]ethanone] | ≥ 80% | ≥ 80% | ≥ 80%
– | COC(=O)C1CC(c2ccc(-c3noc(C(F)(F)F)n3)cc2)=NO1 (stereo not shown) [Compound A-8, methyl 3-[4-[5-(trifluoromethyl)-1,2,4-oxadiazol-3-yl]phenyl]-4,5-dihydroisoxazole-5-carboxylate] | ≥ 80% | – | ≥ 80%
– | CON(C)C(=O)N1CCCC1c1ccc(-c2noc(C(F)(F)F)n2)cc1 (stereo not shown) [Compound A-31, N-methoxy-N-methyl-2-[4-[5-(trifluoromethyl)-1,2,4-oxadiazol-3-yl]phenyl]pyrrolidine-1-carboxamide] | ≥ 80% | ≥ 80% | ≥ 80%
91 to 92 °C | FC(F)(F)c1nc(-c2ccc(-c3nc(CCl)cs3)cc2)no1 [Compound C-9, 3-[4-[4-(chloromethyl)thiazol-2-yl]phenyl]-5-(trifluoromethyl)-1,2,4-oxadiazole] | ≥ 80% | – | ≥ 80%
– | O=C(N1CCCC1c1ccc(-c2noc(C(F)(F)F)n2)cc1)n1ccnc1 (stereo not shown) [Compound A-35, imidazol-1-yl-[2-[4-[5-(trifluoromethyl)-1,2,4-oxadiazol-3-yl]phenyl]pyrrolidin-1-yl]methanone] | ≥ 80% | ≥ 80% | ≥ 80%
135 to 140 °C | Nc1cccc(-c2ccc(-c3noc(C(F)(F)F)n3)cc2)n1 [Compound D-15, 6-[4-[5-(trifluoromethyl)-1,2,4-oxadiazol-3-yl]phenyl]pyridin-2-amine] | ≥ 80% | – | ≥ 80%
230 to 235 °C | O=C(Nc1cc(-c2ccc(-c3noc(C(F)(F)F)n3)cc2)ccn1)C(F)(F)F [Compound D-19, 2,2,2-trifluoro-N-[4-[4-[5-(trifluoromethyl)-1,2,4-oxadiazol-3-yl]phenyl]-2-pyridyl]acetamide] | ≥ 80% | – | ≥ 80%
89 to 90 °C | Cc1csc(-c2ccc(-c3noc(C(F)(F)F)n3)cc2)n1 [Compound C-8, 3-[4-(4-methylthiazol-2-yl)phenyl]-5-(trifluoromethyl)-1,2,4-oxadiazole] | ≥ 80% | ≥ 80% | –
– | CC1=NOC(C)(c2ccc(-c3noc(C(F)(F)F)n3)cc2)C1 (stereo not shown) [Compound A-13, 3-[4-(3,5-dimethyl-4H-isoxazol-5-yl)phenyl]-5-(trifluoromethyl)-1,2,4-oxadiazole] | ≥ 80% | ≥ 80% | ≥ 80%
144 to 155 °C | Cc1ccccc1C(=O)NC1CSC(c2ccc(-c3noc(C(F)(F)F)n3)c(F)c2)=N1 (stereo not shown) [Compound A-23, N-[2-[3-fluoro-4-[5-(trifluoromethyl)-1,2,4-oxadiazol-3-yl]phenyl]-4,5-dihydrothiazol-4-yl]-2-methyl-benzamids] | ≥ 80% | – | ≥ 80%
– | CC1(C)CC(=O)NC(c2ccc(-c3noc(C(F)(F)F)n3)cc2)O1 (stereo not shown) [Compound A-11, 6,6-dimethyl-2-[4-[5-(trifluoromethyl)-1,2,4-oxadiazol-3-yl]phenyl]-1,3-oxazinan-4-one] | ≥ 80% | ≥ 80% | ≥ 80%
